Assay results as given in ChEMBL document CHEMBL4043207, “Discovery of a novel, CNS penetrant M4 PAM chemotype based on a 6-fluoro-4-(piperidin-1-yl)quinoline-3-carbonitrile core” (Bioorg Med Chem Lett, 2017).

Columns and labels:
[1] = target: T1, Muscarinic acetylcholine receptor M4 (Homo sapiens, UniProt P08173); test: Positive allosteric modulation of human M4 receptor expressed in CHO cells co-expressing Gqi5 assessed as increase in acetylcholine-induced calcium mobilization; type: functional, cell-based
T1 sequence (P08173 whole entry): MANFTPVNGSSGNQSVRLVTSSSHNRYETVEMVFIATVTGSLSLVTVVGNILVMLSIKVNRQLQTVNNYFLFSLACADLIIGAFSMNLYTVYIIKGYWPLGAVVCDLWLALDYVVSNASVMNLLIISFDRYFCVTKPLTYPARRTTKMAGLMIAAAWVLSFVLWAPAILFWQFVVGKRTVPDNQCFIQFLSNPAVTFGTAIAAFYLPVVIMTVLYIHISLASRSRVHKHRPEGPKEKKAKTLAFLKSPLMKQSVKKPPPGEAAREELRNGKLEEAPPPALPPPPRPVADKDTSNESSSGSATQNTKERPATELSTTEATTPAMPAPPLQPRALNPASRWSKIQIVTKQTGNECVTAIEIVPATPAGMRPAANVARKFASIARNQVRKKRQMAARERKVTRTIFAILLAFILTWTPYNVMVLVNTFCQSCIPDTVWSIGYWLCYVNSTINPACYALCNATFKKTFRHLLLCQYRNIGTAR

[2] = target: T2, Muscarinic acetylcholine receptor M4 (Homo sapiens) (UniProt P08173); test: Positive allosteric modulation of human M4 receptor expressed in CHO cells co-expressing Gqi5 assessed as increase in acetylcholine-induced calcium mobilization relative to acetylcholine; type: functional, cell-based
T2 sequence (whole entry): T1 sequence (P08173 whole entry)

[3] = (§1) Fraction unbound in human plasma; type: ADME, cell-free
[4] = Fraction unbound in rat plasma; type: ADME, cell-free
[5] = Clearance in rat hepatocytes; type: ADME, cell-based, Hepatocyte
[6] = Clearance in human hepatocytes; type: ADME, cell-based, Hepatocyte
[7] = Fraction unbound in rat brain; type: ADME, tissue-based
[8] = Brain to plasma permeability coefficient, Kp of the compound in Sprague-Dawley rat at 0.1 to 0.2 mg/kg, iv administered as cassette dose after 25 mins; type: ADME, organism-based; details: brain and plasma
[9] = Ratio of unbound concentration in brain to plasma in Sprague-Dawley rat at 0.1 to 0.2 mg/kg, iv administered as cassette dose after 25 mins; type: ADME, organism-based; details: brain and plasma, read-out: K(p,uu,brain)
[10] = tested on: MDR1 (P-gp); test: Efflux ratio of apparent permeability in MDCK-MDR1 cells; type: ADME, cell-based, Canis lupus familiaris; details: dog
[11] = tested on: Plasma; test: as §1; type: ADME, cell-free
[12] = Ratio of unbound concentration in brain to plasma in rat; type: ADME
[13] = Brain to plasma permeability coefficient, Kp of the compound in rat; type: ADME
[14] = target: T3, Muscarinic acetylcholine receptor M4 (Rattus norvegicus, UniProt P08485); test: Positive allosteric modulation of rat M4 receptor assessed as increase in acetylcholine-induced response
T3 sequence (P08485 whole entry): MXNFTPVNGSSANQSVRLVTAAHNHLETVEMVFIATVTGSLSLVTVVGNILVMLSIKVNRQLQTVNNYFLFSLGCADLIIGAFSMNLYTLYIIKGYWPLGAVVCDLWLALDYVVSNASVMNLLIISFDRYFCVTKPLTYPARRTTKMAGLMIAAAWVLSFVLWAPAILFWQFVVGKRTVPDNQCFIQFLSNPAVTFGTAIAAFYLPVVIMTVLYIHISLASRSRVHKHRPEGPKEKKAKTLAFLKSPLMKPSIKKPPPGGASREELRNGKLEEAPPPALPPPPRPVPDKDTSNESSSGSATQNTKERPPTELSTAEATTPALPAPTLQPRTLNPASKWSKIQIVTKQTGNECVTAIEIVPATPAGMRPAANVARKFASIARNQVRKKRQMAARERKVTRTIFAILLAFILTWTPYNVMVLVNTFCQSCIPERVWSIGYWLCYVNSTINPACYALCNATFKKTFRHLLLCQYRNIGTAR

[15] = Clearance in rat plasma at 0.2 mg/kg administered as iv cassette dose; type: ADME, organism-based
[16] = Half life in rat plasma at 0.2 mg/kg administered as iv cassette dose; type: ADME, organism-based
[17] = Volume of distribution at steady state in rat plasma at 0.2 mg/kg administered as iv cassette dose; type: ADME, organism-based; details: read-out: Vdss
[18] = Clearance in dog plasma at 0.2 mg/kg administered as iv cassette dose; type: ADME, organism-based, Canis lupus familiaris
[19] = Half life in dog plasma at 0.2 mg/kg administered as iv cassette dose; type: ADME, organism-based, Canis lupus familiaris
[20] = Volume of distribution at steady state in dog plasma at 0.2 mg/kg administered as iv cassette dose; type: ADME, organism-based, Canis lupus familiaris; details: read-out: Vdss
[21] = tested on: Plasma; test: Fraction unbound in dog plasma at 0.2 mg/kg administered as iv casette dose; type: ADME, organism-based, Canis lupus familiaris; details: in vivo
[22] = Apparent permeability in MDCK-MDR1 cells; type: ADME, cell-based, Canis lupus familiaris; details: dog
[23] = target: T4, Muscarinic acetylcholine receptor M4 (Rattus norvegicus) (UniProt P08485); test: Positive allosteric modulation of rat M4 receptor assessed as increase in acetylcholine-induced response relative to acetylcholine
T4 sequence (whole entry): T3 sequence (P08485 whole entry)

| Structure (SMILES) | EC50 ([1]; read-out: EC50) [nM] | Emax [2] [%] | EC50 ([1]; read-out: pEC50 (converted)) [nM] | also measured |
| --- | --- | --- | --- | --- |
| COc1ccc2c(c1)CCN(C(=O)C1CCN(c3c(C#N)cnc4ccc(F)cc34)CC1)C2 | 648 | 76 | – | fraction unbound [3]: 0.011; fraction unbound [4]: 0.013; CLhep predicted [5]: 64 mL/min/kg; CLhep predicted [6]: 20 mL/min/kg; fraction unbound [7]: 0.007; Kp at 25 min [8]: 1.26; Kp uu at 25 min [9]: 0.68 |
| Cc1ccc(OC2CCN(c3ccnc4ccc(F)cc34)CC2)cn1 | 2210 | 62 | 2140 | – |
| COc1ccc(CNC(=O)C2CCN(c3c(C#N)cnc4ccc(F)cc34)CC2)cc1 | 664 | 60 | 617 | – |
| N#Cc1cnc2ccc(F)cc2c1N1CCC(Oc2ccc(F)nc2)CC1 | 512 | 83 | 490 | – |
| Cc1ccc(OC2CCN(c3c(C#N)cnc4ccc(Cl)cc34)CC2)cn1 | 905 | 72 | – | – |
| N#Cc1cnc2ccc(F)cc2c1N1CCC(Oc2ccccc2)CC1 | 3260 | 81 | – | – |
| N#Cc1cnc2ccc(F)cc2c1N1CCC(C(=O)Nc2cccnc2)CC1 | 619 | 68 | – | – |
| N#Cc1cnc2ccc(F)cc2c1N1CCC(C(=O)N2CCOCC2)CC1 | 6440 | 78 | – | – |
| N#Cc1cnc2ccc(F)cc2c1N1CCC(C(=O)Nc2ccc(S(N)(=O)=O)cc2)CC1 | 248 | 63 | 229 | fraction unbound [3]: 0.064; fraction unbound [4]: 0.016; CLhep predicted [5]: 34 mL/min/kg; CLhep predicted [6]: 13 mL/min/kg; fraction unbound [7]: 0.01; Kp at 25 min [8]: 0.16; Kp uu at 25 min [9]: 0.1; efflux ratio [10]: 83 |
| N#Cc1cnc2ccc(F)cc2c1N1CCC(C(=O)Nc2ccccn2)CC1 | 912 | 44 | 871 | – |
| Cn1nccc1NC(=O)C1CCN(c2c(C#N)cnc3ccc(F)cc23)CC1 | 1760 | 81 | 1660 | – |
| COc1ccccc1CNC(=O)C1CCN(c2c(C#N)cnc3ccc(F)cc23)CC1 | 651 | 48 | 589 | – |
| Cc1ccc(OC2CCN(c3c(C#N)cnc4cc(F)c(F)cc34)CC2)cn1 | 571 | 92 | 562 | – |
| N#Cc1ccc(OC2CCN(c3c(C#N)cnc4ccc(F)cc34)CC2)cn1 | > 10000 | 49 | – | – |
| Cc1ccc(OC2CCN(c3ncnc4ccc(F)cc34)CC2)cn1 | – | – | – | Fu [11]: 0.013; fraction unbound [4]: 0.011; CLhep predicted [5]: 67 mL/min/kg; CLhep predicted [6]: 20 mL/min/kg; fraction unbound [7]: 0.007; Kp at 25 min [8]: 1.16; Kp uu at 25 min [9]: 0.74 |
| Cc1ccc(OC2CCN(c3c(C#N)cnc4ccc(F)cc34)CC2)c(F)n1 | 5640 | 53 | 5370 | – |

| Structure (SMILES) | EC50 ([1]; read-out: EC50) [nM] | Emax [2] [%] | EC50 ([1]; read-out: pEC50 (converted)) [nM] | also measured |
| --- | --- | --- | --- | --- |
| Cc1ccc(OC2CCN(c3c(C#N)cnc4c(F)cc(F)cc34)CC2)cn1 | 223 | 93 | 209 | – |
| N#Cc1cnc2ccc(F)cc2c1N1CCC(C(=O)Nc2ccncn2)CC1 | 940 | 59 | – | – |
| Cc1cc(C)c(OC2CCN(c3c(C#N)cnc4ccc(F)cc34)CC2)cn1 | > 10000 | – | > 31600 | – |
| N#Cc1cnc2ccc(F)cc2c1N1CCC(C(=O)Nc2ccc(F)c(F)c2)CC1 | 565 | 52 | – | – |
| COc1ccc(CNC(=O)C2CCN(c3c(C#N)cnc4ccc(F)cc34)CC2)cc1F | 1090 | 65 | 1050 | K(p,uu,brain) [12]: 0.26; Kp [13]: 0.29; CLhep predicted [5]: 61 mL/min/kg; CLhep predicted [6]: 19 mL/min/kg |
| N#Cc1cnc2ccc(F)cc2c1N1CCC(C(=O)Nc2ccncc2)CC1 | 147 | 73 | – | – |
| Cc1ccc(OC2CCN(c3c(C#N)cnc4c(C)cc(F)cc34)CC2)cn1 | 2070 | 82 | – | – |
| Cc1ccc2ncc(C#N)c(N3CCC(Oc4ccc(C)nc4)CC3)c2c1 | 3020 | 67 | 2950 | – |
| Cc1ccc(OC2CCN(c3c(C#N)cnc4ccc(F)cc34)CC2)c(C)n1 | > 10000 | – | > 31600 | – |
| N#Cc1cnc2ccc(F)cc2c1N1CCC(C(=O)N2CCSCC2)CC1 | 1410 | 88 | – | – |
| N#Cc1cnc2ccc(F)cc2c1N1CCC(C(=O)N2CCc3ccccc3C2)CC1 | 652 | 81 | – | – |
| N#Cc1cnc2ccc(F)cc2c1N1CCC(Oc2cccnc2)CC1 | 1300 | 80 | – | – |
| N#Cc1cnc2ccc(F)cc2c1N1CCC(Oc2ccc(Cl)nc2)CC1 | 577 | 80 | 562 | – |
| Cc1ccc(OC2CCN(c3c(C#N)cnc4ccc(F)cc34)CC2)cn1 | 197 | 79 | – | EC50 [14]: 437 nM; clearance [15]: 36 mL/min/kg; half-life [16]: 1.7 h; Vd [17]: 3.2 L/kg; clearance [18]: 41 mL/min/kg; half-life [19]: 1.6 h; Vd [20]: 4 L/kg; Fu [21]: 0.045; fraction unbound [3]: 0.024; fraction unbound [4]: 0.031; CLhep predicted [5]: 52 mL/min/kg; CLhep predicted [6]: 15 mL/min/kg; fraction unbound [7]: 0.014; Kp at 25 min [8]: 5.25 to 5.3; Kp uu at 25 min [9]: 2.37 to 2.4; efflux ratio [10]: 1.1; Papp [22]: 28 ×10⁻⁶ cm/s; Emax [23]: 74% |
| N#Cc1cnc2ccc(F)cc2c1N1CCC(C(=O)NCc2ccccc2)CC1 | – | 68 to 78 | 1230 | EC50 [14]: 2560 nM; fraction unbound [3]: 0.031; fraction unbound [4]: 0.028; CLhep predicted [5]: 61 mL/min/kg; CLhep predicted [6]: 17 mL/min/kg; Emax [23]: 49% |
